Results: patent publication US7586008B2, “Propofol analogs, process for their preparation, and methods of use” (Abraxis Bioscience, Inc., priority 2003, dated 2009)
Several values for one entry are separate records, joined by “and”; a condition that tells them apart may be missing. Equal entries are not always repeated. Where two headings read alike, the source gives them in different places.

How the values were obtained:
[1] = rat, single i.v. bolus in DMSO; propofol 5 mg/kg, CT8 10 mg/kg
rats [2] = assay: In vivo hypnotic/anesthetic activity, time to recovery of righting reflex; set-up: species or system rat; details: rat
Description: (§1) To determine the binding constant (KD) of propofol and its analogs for GABAA Cl channel, binding was determined as in Example 25 in presence of increasing concentration of propofol and the KD determined graphically using the Hill plots. In vivo hypnotic activity was determined as follows. Drugs solubilized in DMSO were administered to rats by tail vein injection (N=5 rats per group). A dose level of 28 μmol/kg (5 mg/kg for propofol) was used to compensate for differences in molecular weight of the analogs. Anesthetic activity in vivo was determined as time to recovery of righting reflex following administration of the compounds.
(§2) Dose escalation experiment was performed in rat in order to compare the toxicity and the pharmacodynamic of CT8 against propofol. Drugs solubilized in DMSO were administered to rats (5 rats per group). Anesthetic activity in vivo was determined as time to recovery of righting reflex. Mortality was also monitored and the LD50 curves for propofol and CT8 constructed. In order to adjust for the differences in molecular weight between the two compounds, μmol/kg dose was used.

in vivo = details: male, Sprague-Dawley, rat, whole blood, iv
rats [3] = assay: Dose escalation toxicity, mortality and LD curves; details: rat
Description: as §2

GABAA agonist site = details: propofol at 10^-4 M, 3H-GABA
Description: (§3) The propofol binding site on GABAA was defined using a series of competitive binding assays. Frozen bovine hippocampus was thawed and homogenized in 40 volumes of ice-cold 0.32 M sucrose. The suspension was centrifuged at 1000×g for 10 minutes at 4° C. The pellet was washed twice in assay buffer and reacted with radioactive ligand in presence or absence of propofol at 10−4 M final concentration. The amount of radioactivity remained on the Whatman filter following filtration of the reaction mix and two washes with assay buffer was determined using a liquid scintillation counter. Inhibition of radioactive ligand binding by propofol represents the competitive binding of propofol to the same site as the radioactive ligand. GABAA agonist site, GABAA α-1 site, GABAA α-5 site, GABAA α-6 site, and GABAA Cl channel were assayed using ^3H-GABA, ^3H-Flunitrazepam, ^3H-RY80, ^3H-Ro 15-4513, and ^3H-TBOB.

GABAA alpha 2 site = details: propofol at 10^-4 M
Description: as §3

GABAA α-6 site = details: propofol at 10^-4 M, 3H-Ro 15-4513
Description: as §3

GABAA α-1 site = details: propofol at 10^-4 M, 3H-Flunitrazepam
Description: as §3

GABAA Cl channel = assay: Competitive binding assay, GABAA Cl channel (3H-TBOB), bovine hippocampus; details: for Percent Inhibition, chloride channel: propofol at 10^-4 M
Description: as §3, §1

CC(C)c1cccc(C(C)C)c1O [Propofol, 2,6-diisopropylphenol]
V1 [1]: 15.0 L/kg | V2 [1]: 58.0 L/kg | Time to Awakening (h) [mean ± SD, (N)] (rats [2]; dose 5.61 μmol/kg): 0.000 ± 0.000, (5) h | Time to Awakening (h) [mean ± SD, (N)] (rats [2]; dose 28.05 μmol/kg): 0.346 ± 0.149, (4) h and 0.350 ± 0.228 (5) h | Time to Awakening (h) [mean ± SD, (N)] (rats [2]; dose 56.09 μmol/kg): 0.600 ± 0.000, (1) h | time rats were asleep at LD10 (rats [2]; dose = LD10): 0.35 h | Vd (in vivo): 73 L/kg | clearance (in vivo): 195 mL/min/kg | Mortality (%) (rats [3]; dose 5.609469 μmol/kg): 0% | Mortality (%) (rats [3]; dose 28.04734 μmol/kg): 10% | Mortality (%) (rats [3]; dose 56.09469 μmol/kg): 80% | Mortality (%) (rats [3]; dose 112.1894 μmol/kg): 100% | calculated LD10 (rats [3]; drugs in DMSO): 28 µmol/kg | Percent Inhibition, agonist site (GABAA agonist site): No significant inhibition | Percent Inhibition, agonist site (GABAA agonist site; listed as propofol): 12.48% | Percent Inhibition, alpha 2 site (GABAA alpha 2 site): No significant inhibition | Percent Inhibition, alpha 2 site (GABAA alpha 2 site; listed as propofol): −15.58% | Percent Inhibition, alpha 6 site (GABAA α-6 site): No significant inhibition | Percent Inhibition, alpha 6 site (GABAA α-6 site; listed as propofol): −0.89% | Percent Inhibition, alpha 1 site (GABAA α-1 site): No significant inhibition | Percent Inhibition, alpha 1 site (GABAA α-1 site; listed as propofol): −14.31% | IC50 (GABAA Cl channel; increasing concentration, Hill plots, read-out: GABAA CI Channel Binding (IC50)): 4.86 µM | Percent Inhibition, chloride channel (GABAA Cl channel): only inhibited the binding of TBOB | Percent Inhibition, chloride channel (GABAA Cl channel; listed as propofol): 117.52%
